Measured values taken from publication PMC7555119, “Characterization of Novel Synthetic Polyphenols: Validation of Antioxidant and Vasculoprotective Activities” (Antioxidants, 2020).
In brackets after ≈: the same amount, converted by molar mass. Read-outs that look alike come from different tables or passages of the source.

Legend:
[1] = system: Saccharomyces cerevisiae strain BY4741; test: In vivo antioxidant capacity in stressed yeasts (growth recovery, survivors); assay type: cell-based
Method: Saccharomyces cerevisiae haploid strain BY4741 was used as described previously. Briefly, 20 μL of glycerol stock culture was revived in 5ml of YPD medium (1% yeast extract, 2% bacteriological peptone and 2% dextrose) at 28 °C, with shaking (210 rpm). Fifty microliters of 20-h-old culture was used to inoculate fresh 5ml YPD (control medium) or 5 mL of oxidative stress medium (YPOxD: YPOxD; 1% yeast extract, 2% bacteriological peptone, 1% dextrose and 3% H2O2). Stress (and control) was conducted during 16h at 28 °C, with shaking (220 rpm).
Growth rate was determined from growth kinetics using the BioScreen C plate-reader system (OY Growth Curves Ab Ldt., Helsinki, Finland). Stressed yeast cultures (16 h old) were used to inoculate 200 µl of fresh media to an initial OD595 of 0.05–0.07, being distributed in 100-well honeycomb plates (Oy Growth Curves) in triplicate per each condition (each different dose of each compound). Plates were then incubated at 28 °C for 72h, with shaking (High force), taking OD measurement each 15 min in the Bioscreen C. Maximum growth rate (μmax) and biomass production (carrying capacity) were determined in R using ‘Growthcurver’ package version 0.3 [24]. Growth curves were constructed in EXCEL, represented as mean ± SEM (standard error of mean). […] In addition, to measure survival after oxidative stress and antioxidant effectiveness of each compound, yeast cells from each challenge were serially diluted in 96-well plates, and each dilution was spotted (with a 8 × 6 stainless steel replica platter from SIGMA) in triplicate to determine viable colonies after 24–48 h at 28 °C. Survivors (mean ± SEM) were compared between treatments with one-way ANOVA, Fisher’s LSD test, with alpha at 0.05 for significance.

[2] = ABTS radical cation scavenging assay
Method: The 2,2′-azino-bis (3-ethylbenzothiazoline-6-sulfonic acid) diammonium salt (ABTS) assay was performed according to Re et al. and modified by Oki et al. for its use in microplates. Samples were diluted in methanol. An ABTS^•+ stock solution was prepared by adding 44 μL of potassium persulfate (140 mmol/L) to a 2.5 mL ABTS^•+ aqueous solution (7 mmol/L). The working solution of the radical ABTS^+ was prepared by diluting the stock solution 1:75 (v/v) in a sodium phosphate buffer (5 mmol/L, pH 7.4) to obtain an absorbance value of 0.7±0.02 at 734 nm. Samples (30 μL) were added to 270 μL of the working solution of ABTS^•+ in a microplate. Absorbance was measured at 734 nm and 30 °C for 20 min, every 5 min in a Synergy HT plate spectrophotometer (Biotek Instruments, Winoosky, VT, USA). A calibration curve was made with Trolox (20–250 μM). All samples were analyzed in triplicate. Results were expressed in μmol TE/μmol of pure compound, as for the ORAC assays.

[3] = DPPH free radical scavenging assay (RSA)
Method: For the 2,2′-diphenylpicrylhydrazyl (DPPH) assay, antioxidant compounds were dissolved in ethanol with a stock concentration of 4 mM and stirred for 24 h. DPPH (Alfa Aesar) was also dissolved in ethanol at 0.127 mM. Different compound solutions were prepared by serial dilutions of each stock solution ([…]). […] Amounts of 80 µL of each solution and 80 µL of DPPH were added in a 96-well plate. The absorbance was measured at different times (10, 20 and 30 min and 1 and 2 h) by a Multi-Detection Microplate Reader Synergy HT (λMAX = 515 nm). Radical scavenging activity (RSA, %) was calculated using Equation (1) (1) RSA(%)=ADPPH−AEXTRACT/ADPPH·100 where AEXTRACT and ADPPH correspond to the absorbance of DPPH with and without the extracts, respectively. Eight replicates were used for each compound and results were expressed as mean value ± standard deviation. The RSA half-maximal inhibitory concentration (IC50) values were calculated from the relationship curve of RSA versus concentrations by a non-linear fit using the software GraphPad Prism 7.

[4] = system: human dermal fibroblasts (HDF); test: Cell viability, AlamarBlue assay; assay type: cell-based; settings: 24 h, AlamarBlue, non-linear fit
Method: Cytotoxicity of selected antioxidant compounds was assessed using human dermal fibroblasts (HDF, Innoprot, P10856) and an AlamarBlue assay. Human fibroblasts were grown and maintained using Dulbecco’s Modified Eagle Medium high glucose (DMEM, Sigma Aldrich, D6171), supplemented with 10% Fetal Bovine Serum (FBS), 2% L-glutamine and 1% penicillin/streptomycin. Cells were incubated at 37 °C, 95% relative humidity and 5% CO2. Additionally, DMEM-high glucose, HEPES, no phenol red (Gibco, 2106329) was used to prepare the AlamarBlue solution. Stock solutions of the antioxidant compounds 3, 8, 15 and 17 were prepared in dimethyl sulfoxide (DMSO). Compound 7 was not soluble enough in DMSO to obtain a cell viability IC50 value. Serial dilutions of the antioxidant compounds were prepared using the previously mentioned stock solutions and DMEM. Final DMSO concentration was maintained lower than 1% v/v in the cell culture experiments. HDF were seeded at 9 × 10^4 cells/well in a 96-well plate and incubated for 24 h. The medium was replaced by the corresponding antioxidant solutions and incubated for an additional 24 h. Then, compounds were removed, cells were washed with Dulbecco’s Phosphate Buffered Saline (PBS, Sigma Aldrich) and treated with a 10% v/v AlamarBlue (Invitrogen) solution prepared in DMEM without phenol red. After 3 h of incubation, absorbance was monitored at 570 nm by a Multi-Detection Microplate Reader Synergy HT. Cells treated with DMEM without any antioxidant compound were used as the 100% viability control. Eight replicates were used for each antioxidant solution. IC50 values were obtained by a non-linear fit using the software GraphPad Prism 7.

[5] = Aqueous thermodynamic solubility in H2O (UV); assay type: physicochemical; settings: water, thermodynamic from solid
Description: 4) Log P and aqueous solubility of selected compounds.
Table S2. Theoretical Log P values and aqueous thermodynamic solubility measured for
Comp `Chemical Structure MW LogP Calc Aqueous Solubility a
a Thermodynamic solubility in H 2O (UV). […]

[6] = Oxygen radical absorbance capacity (ORAC) assay
Method: The ORAC assay was performed following Ou et al., as modified by Garcés-Rimón et al.. All samples and reagents were dissolved in phosphate buffer (75 mM; pH 7.4). […] The fluorescence was recorded at 40 °C every 55 s for 95 min using a fluorimeter (SpectraMax M2; Molecular Devices, California, USA), with excitation and emission wavelengths of 480 and 520 nm, respectively. All samples were tested in triplicate. ORAC values were expressed as μmol of Trolox equivalents (TE)/μmol of pure compound.

Structure (SMILES): O=C(Nc1ccc(O)cc1)N(c1ccc(O)cc1)c1ccc(O)cc1 [Compound 17, N,N-bis(4-Hydroxyphenyl)-N′-(4′-hydroxyphenyl)urea]
- melting point: 186 to 187 °C (dec.)
- growth rate (r) recovery of stressed yeast ([1]; H2O2-stressed BY4741, doses 2, 20 and 40 μg): best performing antioxidant
- carrying capacity (k) recovery of stressed yeast ([1]; H2O2-stressed BY4741, each dose tested): able to recover the carrying capacity of yeast cells similarly as control antioxidants
- ABTS [2]: 3.57 ± 0.00 µmol of trolox/µmol of pure compound
- concentration down to which RSA ability is maintained independently of time ([3]; 10 min to 2 h): 0.25 mM
- RSA capacity fold higher compared to resveratrol ([3]; after 10 min, from IC50): 3.7 fold
- IC50 ([3]; compound needed to reach 50% RSA after 10 min, read-out: DPPH PSA IC50 10 min): 17.9 µM
- RSA percentage ([3]; highest concentration 2 mM, 10 min): ~72%
- IC50 ([3]; read-out: DPPH PSA IC50 2 h, compound needed to reach 50% RSA after 2 h): 9.6 µM
- IC50 [4]: > 1400 µM
- IC50 ([4]; Homo sapiens, Fibroblast): 1790 µM
- solubility [5]: 620 ± 10 µg/mL (≈ 1840 µM)
- ORAC [6]: 19.4 ± 0.7 µmol of trolox/µmol of pure compound
- ORAC ([6]; TE: Trolox Equivalents): > 19 TE
